Tests used:
CTSL = target: T1, CTSL (Homo sapiens, UniProt P07711); assay: Human recombinant cathepsins isolated enzyme assay, CTSL; type: biochemical; conditions: read-out: CTSL Enz (IC50: μM)
T1 construct: purchased R&D Systems
Excerpt: The protocol for evaluating the inhibitory potency of compounds against other cathepsins referred to the CTSC activity assay. Recombinant human CTSB, CTSL, CTSS and CTSK for testing were also purchased from R&D Systems Biotechnology Company. Recombinant human Cat G, NE, and PR3 For testing were purchased from MedChemExpress. A multi-functional microplate reader was used to measure the absorption of Z-Leu-Arg-AMC at excitation/emission wavelengths of 380/460 nm to assess the activity changes of CTSB and CTSL, while the absorption of MCA-Arg-Pro-Lys-Pro-Val-Glu-NVAL-Trp-Arg-Lys(DNP)-NH2 at 320/405 nm was measured to evaluate the activity changes of CTSS and CTSK. Different assay buffers were prepared for diluting samples and measuring the activities of specific NSPs: a buffer containing 50 mM Tris and 750 mM NaCl (pH 7.4) was used for NE and PR3; a buffer containing 50 mM Tris, 750 mM NaCl, 5 mM EDTA (pH 7.4) was used for Cat G; and a buffer containing 25 mM MES, 50 mM NaCl, 5 mM DTT (pH 6.0) was used for CTSC. Synthetic substrates were employed to assess the activities of NSPs and CTSC: H-Gly-Arg-AMC for CTSC, N-MeSuc-Ala-Ala-Pro-Val-pNA for NE, aminobenzoyl-Val-Ala-Asp-Cys-Ala-Asp-Gln-ethylenediamine 2,4-dinitrophenyl for PR3, and N-Suc-Ala-Ala-Pro-Phe-pNA for Cat G. Each group of tests was independently repeated at least 3 times, and IC50 values were calculated using SPSS 10.0.

NSPs = assay: Stability (protein level) of NSPs in U937 cells, Western blot, NSPs together; type: cell-based, human; conditions: U937, 10 μM, 24 h
Description: The Western blot experiments in this study were performed as described below. Cells in the logarithmic growth phase were collected in appropriate numbers according to different experimental purposes. After being thoroughly washed with phosphate-buffered saline and centrifuged, the cell pellets were resuspended in phosphate-buffered saline to obtain single-cell suspensions. Cells were fully lysed using RIPA buffer (Beyotime, P0013B) supplemented with EDTA-free protease and phosphatase inhibitor (Abcam, ab201120). Total cellular protein solutions were obtained after centrifugation to remove cell debris. The isolated proteins were quantified using the BeyoBCA protein assay kit (Beyotime, P0399M) following the operational protocol. The quantified protein samples were thoroughly mixed with protein loading buffer, boiled on a dry bath for 5 min, and then cooled to room temperature for Western blot analysis. […] Finally, enhanced chemiluminescent horseradish peroxidase substrate (Tanon Science & Technology Co., Ltd., Shanghai, China, 180-506) was used to visualize protein bands on a ChemiDoc XRS system (Bio-Rad Laboratories, Inc., Hercules, CA, USA), and the protein bands were quantified using Image Lab analysis software (Version 6.1) (Bio-Rad). […]

[1] = system: TNF-α, IL-6, IL-1β, MCP-1, CXCL2 in RAW 264.7 cells; assay: LPS-induced cytokine and chemokine secretion, ELISA; type: cell-based, mouse; conditions: LPS-stimulated RAW 264.7 cells, 24 h, concentration-dependent
Description: RAW264.7 cells in the logarithmic growth phase were counted and diluted to a concentration of 6 × 10^4 cells/mL. After thorough mixing, the cell suspension was seeded into 48-well plates and incubated in a humidified atmosphere containing 5% CO2 at 37 °C. Following 24 h of incubation, the culture medium was carefully aspirated, and the cells were gently washed with phosphate-buffered saline. […] After 1 h of pre-incubation, 30 μL of lipopolysaccharide (1 μg/mL) was added to each well except for the blank control group, which remained unstimulated. Following an additional 24 h incubation under identical conditions, the culture supernatants were collected to assess NO production using the Griess reagent assay. Concentrations of pro-inflammatory cytokines and chemokines were determined using commercially available ELISA kits according to the protocols.

T1 sequence (P07711 114-333): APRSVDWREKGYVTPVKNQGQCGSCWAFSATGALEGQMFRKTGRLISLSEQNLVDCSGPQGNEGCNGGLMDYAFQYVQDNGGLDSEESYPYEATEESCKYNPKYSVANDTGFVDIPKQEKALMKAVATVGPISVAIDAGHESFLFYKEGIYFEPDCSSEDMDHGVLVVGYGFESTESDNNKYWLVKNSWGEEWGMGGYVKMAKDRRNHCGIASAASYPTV

## C[C@@H]1C[C@H]2OC(=O)[C@@]3(C)CCC[C@@](C)([C@@H]23)[C@@]1(O)CCc1ccoc1 [Marrubiin, marrubiin]
CTSL
  IC50: 4.4 ± 0.5 µM
NSPs
  content of NSPs, % of the original level: 75.4–87.8%
[1]
  relative levels of TNF-α, IL-6, IL-1β, MCP-1, CXCL2: reduced to varying degrees
